Results: patent publication US11021711B2, “Genetic variations associated with drug resistance” (GENENTECH, Inc., priority 2008, dated 2021)
pEC50, pIC50: −log10 of the molar value. Where two headings read alike, the source gives them in different places. One block for each compound: values may come before it. Square brackets hold non-standard residues; d marks the D form. Peptide text beside a SMILES is read from it. * marks the point of attachment. Dolaproine = CO[C@@H]([C@@H]1CCCN1)[C@@H](C)C(=O)O; Dil = CC[C@H](C)[C@H](NC)[C@@H](CC(=O)O)OC; X1 = C[C@@H](N*)[C@@H](O)c1ccccc1; NMeV = CN[C@H](C(=O)O)C(C)C

Tests used:
EFM192A = experiment: Celltiter-Glo Luminescent Cell Viability Assay, EFM192A; format: cell-based, human; conditions: 72 hours
Description: (§1) For MMAE and paclitaxel IC50 determination, cells were plated in quadruplicate at a density of 3000 cells per well in 384-well plates in normal growth medium and allowed to adhere overnight. Paclitaxel (Sigma) or MMAE (Seattle Genetics, Seattle, Wash.) were added in 10 concentrations based on a three-fold dilution series (1 μmol/L maximal paclitaxel or 0.1 μmol/L maximal for MMAE).
(§2) Cell viability was measured 72 hours later using the Celltiter-Glo Luminescent Cell Viability Assay (Promega, Madison, Wis.). The concentration of drug resulting in the 50% inhibition of cell viability (IC50) was calculated from a four-parameter curve analysis (XLfit, 1DSS software) and was determined from a minimum of three experiments. […] FIG. 6 provides examples of representative cell viability experiments for six cell lines. Cell lines EFM192A, NDAMB361, and BT474 were classified as resistant to each agent in the bioinformatic analysis. AU565, EFM19, and MDAMB468 were classified as sensitive. IC50 values from fitted curves are shown in the charts to the right of each graph.

NDAMB361 = experiment: Celltiter-Glo Luminescent Cell Viability Assay, NDAMB361; format: cell-based, human; conditions: NDAMB361, 72 hours
Description: as §1, §2

BT474 = experiment: Celltiter-Glo Luminescent Cell Viability Assay, BT474; format: cell-based, human; conditions: BT474, 72 hours
Description: as §1, §2

[1] = test system: EVSA-T cells (empty vector control clone); experiment: ATP-based luminescence viability assay, EVSA-T vector control line; format: cell-based, human; conditions: three day assay, read-out: EC50 (concentration that resulted in half-maximal response)
Text: (§3) The control cell line in FIG. 5 is in fact a clone of EVSA-T derived after transfection with an empty vector and in the particular experiment shown achieved an IC50.
(§4) For ABCC3 overexpression experiments a full length ABCC3 cDNA cloned in the CMV promoter containing vector pCMV5 (Invitrogen, Carlsbad, Calif.) was verified by sequencing the entire coding sequence. The construct was transfected into EVSA-T cells and stable clones were selected by growth in lmg/ml geneticin (Invitrogen Carlsbad, Calif.). Overexpression of ABCC3 in stable clones was confirmed by qRT-PCR on cDNA derived from lines containing pCMV5-ABCC3, pCMV5 vector alone, or the parental EVSA-T strain. All stable cell lines described in this report were determined in qRT-PCR experiments to express at least 25-35× more ABCC3 transcript than vector control lines or the parental cell line.
(§5) Three independently derived lines were confirmed to overexpress ABCC3 transcripts and screened for in vitro sensitivity to paclitaxel and MMAE using an ATP-based luminescence assay. […] The EC50 for the vector control treated with paclitaxel was 0.2 nM while the EC50 values for the ABCC3-expressing lines were 5 nM, 10 nM, and 80 nM, respectively.

[2] = test system: ABCC3-overexpressing EVSA-T cells; experiment: ATP-based luminescence viability assay, ABCC3-overexpressing EVSA-T clones; format: cell-based, human; conditions: for inhibition of cell growth compared to vector-alone control stable cell line: all three overexpressing cell lines, ATP-based luminescence assay (FIG. 5); for pEC50: three day assay, read-out: EC50 (concentration that resulted in half-maximal response)
Text: as §3, §4, §5
EVSA-T cells were stably transfected with an ABCC3 containing plasmid where ABCC3 is expressed at high levels from a cytomegalovirus (CMV) promoter. Overexpression of ABCC3 was confirmed by qRT-PCR.

AU565 = experiment: Celltiter-Glo Luminescent Cell Viability Assay, AU565; format: cell-based; conditions: Homo sapiens; AU565, 72 hours; read-out: classification in the bioinformatic analysis (IC50 cell viability), paclitaxel
Description: as §1, §2

EFM19 = experiment: Celltiter-Glo Luminescent Cell Viability Assay, EFM19; format: cell-based; conditions: Homo sapiens, EFM-19; EFM19, 72 hours; read-out: classification in the bioinformatic analysis (IC50 cell viability), paclitaxel
Description: as §1, §2

MDAMB468 = experiment: Celltiter-Glo Luminescent Cell Viability Assay, MDAMB468; format: cell-based; conditions: Homo sapiens, MDA-MB-468; MDAMB468, 72 hours; read-out: classification in the bioinformatic analysis (IC50 cell viability), paclitaxel
Description: as §1, §2

EFM-192A cells = experiment: Mitotic index (phospho histone H3) after ABCC3 or control siRNA, EFM-192A; format: cell-based, human; conditions: for sensitivity (mitotic response) of ABCC3 siRNA transfected cells vs control siRNA (NTC) transfected cells: EFM-192A cells
Description: High content screening assays were carried out on an Arrayscan VTI (Cellomics Inc, Pittsburgh, Pa.). Cells were transfected in 96 well format using siRNA “Smartpool” oligonucleotides purchased from Dharmacon Inc and Oligofectamine transfection reagents. To prioritize genes for functional studies, 2-sided Wilcoxon rank sum tests using the R programming language (http://www.r-project.org) were done to identify genes with a significant difference in gene expression in cell lines with more than 4 copies compared to those with less than 4 copies of the 17q21.3 amplicon. This analysis combined with availability of reagents for RNAi experiments led to the selection of the following 24 genes for functional studies in the EFM-192A cell line: ABCC3, COL1A1, CROP, EAP, EPN3, FLJ13855, F1120920, HOXB7, LOC201191, ITGB3, KIAA0924, KPNB1, LOC400604, LOC81558, MGC11242, MGC15396, NDP52, PDK2, PHB, PP1R9B, SLC35B1, SPOP, TOB1, WNT3. Follow-up studies with ABCC3 siRNA were conducted in the additional cell lines ZR75-30, MDAMB-453 and HCC-1428. […] After 48 hours or 72 hours incubation at 37 C, cells were fixed in 3.7% formaldehyde and permeabilized in 0.1% Triton X-100, followed by labeling with a 1:500 dilution of anti-phospho histone H3 (pH3, Upstate) and subsequent 1:250 dilution of Alexa-fluor 488 (Molecular probes) Goat anti-rabbit secondary antibody. Cells were counterstained with Hoechst-33258 to allow identification of nuclei and the percentage of cells positive for nuclear pH3 immunofluorescence, also known as the Mitotic Index (30), was then quantitated for at least 1000 cells per well using Cellomics Target Activation software.
(§6) Phosphorylation at Ser10 of histone H3 is tightly correlated with chromosome condensation during M phase, and the percentage of cells that are positive for pH3 staining, or mitotic index, can be determined through an immunofluorescence assay.

ZR75-30 = experiment: Mitotic index (phospho histone H3) after ABCC3 or control siRNA, ZR75-30; format: cell-based, human; conditions: ZR75-30 (ABCC3 amplified), drug-treated cells
Description: (§7) High content screening assays were carried out on an Arrayscan VTI (Cellomics Inc, Pittsburgh, Pa.). Cells were transfected in 96 well format using siRNA “Smartpool” oligonucleotides purchased from Dharmacon Inc and Oligofectamine transfection reagents. To prioritize genes for functional studies, 2-sided Wilcoxon rank sum tests using the R programming language (http://www.r-project.org) were done to identify genes with a significant difference in gene expression in cell lines with more than 4 copies compared to those with less than 4 copies of the 17q21.3 amplicon. […] Cells were counterstained with Hoechst-33258 to allow identification of nuclei and the percentage of cells positive for nuclear pH3 immunofluorescence, also known as the Mitotic Index (30), was then quantitated for at least 1000 cells per well using Cellomics Target Activation software.
as §6, with “An RNA interference strategy was used to identify the gene responsible for mediating resistance to taxanes and auristatins in amplified cell lines. […] Phosphorylation” for “Phosphorylation”, “assay. […]” for “assay.”

HCC-1428 = experiment: Mitotic index (phospho histone H3) after ABCC3 or control siRNA, HCC-1428; format: cell-based, human; conditions: HCC-1428 (non-amplified), drug-treated cells
Description: as §7
as §6, with “An RNA interference strategy was used to identify the gene responsible for mediating resistance to taxanes and auristatins in amplified cell lines. […] Phosphorylation” for “Phosphorylation”, “assay. […]” for “assay.”

MDA-MB-453 = experiment: Mitotic index (phospho histone H3) after ABCC3 or control siRNA, MDA-MB-453; format: cell-based, human; conditions: MDA-MB-453 (non-amplified), drug-treated cells
Description: as §7
as §6, with “An RNA interference strategy was used to identify the gene responsible for mediating resistance to taxanes and auristatins in amplified cell lines. […] Phosphorylation” for “Phosphorylation”, “assay. […]” for “assay.”

[3] = test system: HER2-positive metastatic breast cancer
Description: ABCC3 FISH analysis was performed on samples obtained from the T-DM1 Phase II (TDM4258G) trial to explore the effect of ABCC3 amplification on T-DM1 activity in HER2 amplified breast tumors. The TDM4258G trial is a multi-institutional, open-label, single-arm, Phase II study of T-DM1 administered by IV infusion to patients with HER2-positive metastatic breast cancer. The patients in the trial had shown prior progression on HER2-directed therapy. Formalin Fixed Paraffin Embedded (FFPE) archival tumor tissue samples from the clinical trial was obtained from the clinical investigation sites with appropriate IRB approval and patient consent.
The FISH assay was performed on the clinical trial samples as described in Example 1. […] Those samples with ABCC3/CEP17 ratios of 1.8 and above are considered to have ABCC3 amplification.

[4] = read-out: classification in the bioinformatic analysis (IC50 cell viability), MMAE

Compound: CC[C@H](C)[C@@H]([C@@H](CC(=O)N1CCC[C@H]1[C@H](OC)[C@@H](C)C(=O)N[C@H](C)[C@@H](O)c1ccccc1)OC)N(C)C(=O)[C@@H](NC(=O)[C@@H](NC)C(C)C)C(C)C [MMAE, monomethyl auristatin E] (H-[NMeV]V[Dil][Dolaproine]-X1)
pIC50 (EFM192A; [4]): < 7.00
pIC50 (NDAMB361; [4]): < 7.00
pIC50 (BT474; [4]): < 7.00
pEC50 [1]: 10.30
inhibition of cell growth compared to vector-alone control stable cell line [2]: markedly less inhibition of cell growth
pEC50 ([2]; first ABCC3-expressing EVSA-T line): 8.82
pEC50 ([2]; second ABCC3-expressing EVSA-T line): 7.92
pEC50 ([2]; third ABCC3-expressing EVSA-T line): 7.05

pIC50 (BT474; Homo sapiens, BT-474, read-out: classification in the bioinformatic analysis (IC50 cell viability), paclitaxel): < 6.00
pIC50 (MDAMB468): > 8.00
Compound: CC(=O)O[C@H]1C(=O)[C@@]2(C)[C@H]([C@H](OC(=O)c3ccccc3)[C@]3(O)C[C@H](OC(=O)[C@H](O)[C@@H](NC(=O)c4ccccc4)c4ccccc4)C(C)=C1C3(C)C)[C@]1(OC(C)=O)CO[C@@H]1C[C@@H]2O [paclitaxel]
pIC50 (EFM192A; Homo sapiens, EFM-192A, read-out: classification in the bioinformatic analysis (IC50 cell viability), paclitaxel): < 6.00
pIC50 (NDAMB361; Homo sapiens, read-out: classification in the bioinformatic analysis (IC50 cell viability), paclitaxel): < 6.00
pIC50 (AU565): > 8.00
pIC50 (EFM19): > 8.00
pEC50 ([1]; Homo sapiens, 72 h): 9.70
pEC50 ([2]; Homo sapiens, EVSA-T, 72 h, first ABCC3-expressing EVSA-T line): 8.30
pEC50 ([2]; Homo sapiens, EVSA-T, 72 h, second ABCC3-expressing EVSA-T line): 8.00
pEC50 ([2]; Homo sapiens, EVSA-T, 72 h, third ABCC3-expressing EVSA-T line): 7.10
inhibition of cell growth compared to vector-alone control stable cell line [2]: markedly less inhibition of cell growth
change in mitotic index, ABCC3 RNAi relative to non-targeting control siRNA (EFM-192A cells; EFM-192A (ABCC3 amplified), drug-treated cells): two to three fold increase
change in mitotic index, ABCC3 RNAi relative to non-targeting control siRNA (ZR75-30): two to three fold increase
change in mitotic index, ABCC3 RNAi relative to non-targeting control siRNA (HCC-1428): did not appreciably alter
change in mitotic index, ABCC3 RNAi relative to non-targeting control siRNA (MDA-MB-453): did not appreciably alter

Compound: COc1cc2cc(c1Cl)N(C)C(=O)C[C@H](OC(=O)[C@H](C)N(C)C(=O)CCS)[C@]1(C)O[C@H]1[C@H](C)[C@@H]1C[C@@](O)(NC(=O)O1)[C@H](OC)/C=C/C=C(\C)C2 [DM1]
sensitivity to free DM1 vs control cell line ([2]; three ABCC3 overexpressing clones, standard cell viability assay (FIG. 7)): more resistant
sensitivity (mitotic response) of ABCC3 siRNA transfected cells vs control siRNA (NTC) transfected cells (EFM-192A cells): more sensitive

Compound: Trastuzumab-MCC-DM1 [T-DM1]
sensitivity (mitotic response) of ABCC3 siRNA transfected cells vs control siRNA (NTC) transfected cells (EFM-192A cells): more sensitive
patients who responded to treatment ([3]; samples with amplification of ABCC3 (ABCC3/CEP17 ratio 1.8 and above), 2/5, IV infusion): 40%
patients who responded to treatment ([3]; samples with no amplification of ABCC3 (ABCC3/CEP17 below 1.8), 12/15, IV infusion): 80%
